Here are results for 2 compounds from patent US10722451B2, “Tree bark extract as anti-aging composition and uses thereof” (LES LABORATOIRES BIOFOREXTRA, priority 2017, dated 2020).

Data set [1] in a line: UV protection in vitro by spectrophotometer (SPF calculation). The settings on record: 20 μg/ml in ethanol; absorbance 290-320 nm. Format: physicochemical.
Data set [2] relates to type I Collagen in human skin fibroblasts (WS1). The data set can be described thus: Stimulation of collagen type I in skin fibroblasts (immunofluorescence). Format: cell-based. The settings on record: positive control at 10 ng/mL. The procedure: The effect of the extract on collagen stimulation was evaluated using specific antibodies to type I Collagen. Once bound to collagen, the primary antibody is detected by a secondary antibody on which a fluorophore is grafted. Human skin fibroblasts (WS1, ATCC CRL-1502) were seeded in 96-well microplates in a full decomplemented culture medium and incubated overnight at 37° C. and 5% CO2 to allow their adherence. Thereafter, the cells were incubated for 24 hours in the absence or presence of increasing concentrations of Red maple bark extract (12.5, 25, 50 and 100 μg/mL). The culture medium containing the extract was then removed and the cells were fixed with 95% ethanol for 10 minutes. The cells were washed three times with PBS and permeabilized with 0.5% Triton solution in PBS for 15 minutes. […] The fluorescence emitted by the secondary antibody was then measured and pictures were taken with a fluorescence microscope Cytation3.
The effect of the extract on collagen stimulation was evaluated using specific antibodies to type I Collagen. Once bound to collagen, the primary antibody is detected by a secondary antibody on which a fluorophore is grafted. […] The fluorescence emitted by the secondary antibody was then measured and pictures were taken with a fluorescence microscope Cytation3.

In the case of `CC1CC(OC(=O)c2ccccc2O)CC(C)(C)C1` (centres unmarked) [Homosalate], in data set [1], the SPF is reported as 3.9 ± 0.2. With TGF-β, the “average increase of collagen (fluorescence) compared to untreated cells” value in data set [2] was 56%.
